Here are results for five compounds from patent publication US7595329B2, “Benzimidazolone carboxylic acid derivatives” (Pfizer Inc, priority 2004, dated 2009).

The structures appear in SMILES notation.

By melting point is commonly meant the temperature, or range, at which the solid turns liquid. In turn, `CC(C)n1c(=O)n(C(=O)NCC2CCN(CC3(C(=O)O)CCCC3)CC2)c2ccccc21` [Example 3, 1-{[4-({[(3-isopropyl-2-oxo-2,3-dihydro-1H-benzimidazol-1-yl)carbonyl]amino}methyl)piperidin-1-yl]methyl}cyclopentanecarboxylic acid] gave a melting point of 165 °C.

Take `CC(C)n1c(=O)n(C(=O)NCC2CCN(CC3(C(=O)O)CC3)CC2)c2ccccc21.Cl`: the melting point was 206 °C.

`CC(C)n1c(=O)n(C(=O)NCC2CCN(CC3(C(=O)O)CCOCC3)CC2)c2ccccc21` [Example 1, 4-{[4-({[(3-isopropyl-2-oxo-2,3-dihydro-1H-benzimidazol-1-yl)carbonyl]amino}methyl)piperidin-1-yl]methyl}tetrahydro-2H-pyran-4-carboxylic acid] returned a melting point of 176 °C.

`CC(C)n1c(=O)n(C(=O)NCC2(O)CCN(CC3(C(=O)O)CCCCC3)CC2)c2ccccc21` [Example 6, 1-{[4-hydroxy-4-({[(3-isopropyl-2-oxo-2,3-dihydro-1H-benzimidazol-1-yl)carbonyl]amino}methyl)piperidin-1-yl]methyl}cyclohexanecarboxylic acid] came in with a melting point of 184 °C.

Compound `CC(C)n1c(=O)n(C(=O)NCC2CCN(CC3(C(=O)O)CCCCC3)CC2)c2ccccc21` [Example 2, 1-{[4-({[(3-isopropyl-2-oxo-2,3-dihydro-1H-benzimidazol-1-yl)carbonyl]amino}methyl)piperidin-1-yl]methyl}cyclohexanecarboxylic acid] had a melting point of 151 °C.
